Assay results from patent publication US10603345B2, “Pharmaceutical composition for treating respiratory disease” (Kunming Institute of Botany, The Chinese Academy of Sciences, priority 2015, dated 2020).

Columns and labels:
Type in all cases: in vivo
[1] = system: Col-1 in homogenate of pulmonary fibrosis model mouse; experiment: Effect on Col-1 in homogenate of pulmonary fibrosis model mouse; details: ELISA, bleomycin pulmonary fibrosis mouse, ig 28 d, dose/kg: prednisone acetate 5 mg, Test group 1 50, 2 25, 3 12.5, picrinine 5.0, vallesamine 3.0, scholaricine 3.5, 19-epi-scholaricine 1.0 mg, x ± SD
Method: (§1) Animal source: 30˜35 g male ICR mouse, from laboratory animal department of Kunming Medical University, License No. SCXK (Dian) 2011-0004.
(§2) Method and route: bleomycin was used to induce mouse pulmonary fibrosis, and after intragastrical administration for 28 d at a dose of 20 mL/kg, the animal was sacrificed at the 29th day.
(§3) Group and dose: Sham group, Model group, Positive control group, prednisone acetate (5 mg/kg) group, Test group 1: picrinine, vallesamine, scholaricine and 19-epischolaricine prepared in Example 1.7 were mixed at different ratios by weight (50 mg/kg), Test group 2: the alkaloid composition (25 mg/kg) prepared in Example 1.5, Test group 3: the alkaloid composition (12.5 mg/kg) prepared in Example 1.6, Picrinine group (5.0 mg/kg), Vallesamine group (3.0 mg/kg), Scholaricine group (3.5 mg/kg), and 19-epischolaricine group (1.0 mg/kg).
(§4) Positive control drug: prednisone acetate tablet, Approval number: H33021207, 5 mg/tablet, produced by Zhejiang Xianju Pharmaceutical Co., Ltd., Batch No. 140146.
(§5) Sample preparation: all the samples were prepared by using 0.5% carboxymethylcellulose sodium (0.5% CMC-Na).
Group and dose: in Test group 1, the ratio of picrinine, vallesamine, scholaricine and 19-epischolaricine by weight was 20:17:17:4, and the other groups and doses thereof were as described in Example 12.
Test index: Col-1 in homogenate was used as index, and was determined by enzyme linked immunosorbent assay.

[2] = system: LDH in serum of pulmonary fibrosis model mouse; experiment: Effect on LDH in serum of pulmonary fibrosis model mouse; details: bleomycin pulmonary fibrosis mouse, ig 28 d, dose/kg: prednisone acetate 5 mg, Test group 1 50, 2 25, 3 12.5, picrinine 5.0, vallesamine 3.0, scholaricine 3.5, 19-epi-scholaricine 1.0 mg, x ± SD
Method: as §1, §2, §3, §4
(§6) Sample preparation: all the samples were prepared by using 0.5% carboxymethylcellulose sodium (0.5% CMC-Na). […]
Test index: LDH in serum was used as index, and was determined by 2, 4-dinitrophenylhydrazine method.

[3] = system: SOD in serum and homogenate of pulmonary fibrosis model mouse; experiment: Effect on SOD in serum and homogenate of pulmonary fibrosis model mouse; details: bleomycin pulmonary fibrosis mouse, ig 28 d, dose/kg: prednisone acetate 5 mg, Test group 1 50, 2 25, 3 12.5, picrinine 5.0, vallesamine 3.0, scholaricine 3.5, 19-epi-scholaricine 1.0 mg, x ± SD
Method: as §1, §2, §3, §4, §5
Group and dose: in Test group 1, the ratio of picrinine, vallesamine, scholaricine and 19-epischolaricine by weight was 10:7:7:2, and the other groups and doses thereof were as described in Example 12.
Test index: SOD in serum and homogenate was used as index, and was determined by xanthine oxidase method.

[4] = system: MDA in serum and homogenate of pulmonary fibrosis model mouse; experiment: Effect on MDA in serum and homogenate of pulmonary fibrosis model mouse; details: bleomycin pulmonary fibrosis mouse, ig 28 d, dose/kg: prednisone acetate 5 mg, Test group 1 50, 2 25, 3 12.5, picrinine 5.0, vallesamine 3.0, scholaricine 3.5, 19-epi-scholaricine 1.0 mg, x ± SD
Method: as §1, §2, §3, §4, §5
Group and dose: in Test group 1, the ratio of picrinine, vallesamine, scholaricine and 19-epischolaricine by weight was 8:5:5:1, and the other groups and doses thereof were as described in Example 12.
Test index: MDA in serum and homogenate was used as index, and was determined by thiobabituric acid method.

[5] = system: Hyp in homogenate of pulmonary fibrosis model mouse; experiment: Effect on Hyp in homogenate of pulmonary fibrosis model mouse; details: bleomycin pulmonary fibrosis mouse, ig 28 d, dose/kg: prednisone acetate 5 mg, Test group 1 50, 2 25, 3 12.5, picrinine 5.0, vallesamine 3.0, scholaricine 3.5, 19-epi-scholaricine 1.0 mg, x ± SD
Method: as §1, §2, §3, §4, §6
Test index: Hyp in homogenate was used as index, and was determined by enzyme linked immunosorbent assay.

[6] = system: KL-6 in serum of pulmonary fibrosis model mouse; experiment: Effect on KL-6 in serum of pulmonary fibrosis model mouse; details: ELISA, bleomycin pulmonary fibrosis mouse, ig 28 d, dose/kg: prednisone acetate 5 mg, Test group 1 50, 2 25, 3 12.5, picrinine 5.0, vallesamine 3.0, scholaricine 3.5, 19-epi-scholaricine 1.0 mg, x ± SD
Method: as §1, §2, §3, §4, §5
Group and dose: in Test group 1, the ratio of picrinine, vallesamine, scholaricine and 19-epischolaricine by weight was 45:38:30:8, and the other groups and doses thereof were as described in Example 12.
Test index: KL-6 in serum was used as index, and was determined by enzyme linked immunosorbent assay.

Question: `CC(=O)OCC(=O)[C@@]1(O)CC[C@H]2[C@@H]3CCC4=CC(=O)C=C[C@]4(C)[C@H]3C(=O)C[C@@]21C` [prednisone acetate, reference compound] was tested. Which Col-1 [1] did it give?
Answer: 6.0 ± 2.1 μg/g prot

Question: What about the LDH [2] of the same compound?
Answer: 10.5 ± 3.4 U/g prot

Question: What about the “SOD homogenate” value ([3]; homogenate) of the same compound?
Answer: 60.0 ± 15.9 U/mg prot

Question: And the “SOD Serum” value ([3]; serum)?
Answer: 15.5 ± 3.8 U/mg prot

Question: What about the “MDA Homogenate” value ([4]; homogenate) of the same compound?
Answer: 19.0 ± 6.6 nmol/mg prot

Question: What about the “MDA Serum” value ([4]; serum) of the same compound?
Answer: 0.55 ± 0.17 nmol/mg prot

Question: What about the Hyp [5] of the same compound?
Answer: 2.9 ± 0.8 μg/g prot

Question: What about the KL-6 [6] of the same compound?
Answer: 3.00 ± 1.00 U/mg prot
